22 compounds from patent publication US6903238B2, “Substituted indenones as estrogenic agents” (Wyeth, priority 2001, dated 2005) can be followed below.

One series concerns the target T1, human ERα (Homo sapiens, UniProt P03372).
T1 sequence (P03372 250-595): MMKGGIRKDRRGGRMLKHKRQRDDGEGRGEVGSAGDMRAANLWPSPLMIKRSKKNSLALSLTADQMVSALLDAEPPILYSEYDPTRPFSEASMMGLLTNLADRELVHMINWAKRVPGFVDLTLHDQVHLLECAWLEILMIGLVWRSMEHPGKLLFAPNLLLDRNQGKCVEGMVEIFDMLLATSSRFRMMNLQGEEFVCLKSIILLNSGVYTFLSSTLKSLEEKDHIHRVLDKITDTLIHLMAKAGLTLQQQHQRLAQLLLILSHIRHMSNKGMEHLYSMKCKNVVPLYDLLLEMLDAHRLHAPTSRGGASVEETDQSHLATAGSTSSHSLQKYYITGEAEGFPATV
Briefly: Radioligand binding competition with [3H]-17β-estradiol, ERα. The following applies: read-out: ER-α IC50.

The target in the next series is T2, human ERβ (Homo sapiens, UniProt Q92731).
T2 construct: M250-V595 of human ERα [Green, et al., Nature 320: 134-9 (1986)] and M214-Q530 of human ERβ; Flag (C); made in house; host or cells: E. coli BL21(DE3)
T2 sequence (Q92731 214-530): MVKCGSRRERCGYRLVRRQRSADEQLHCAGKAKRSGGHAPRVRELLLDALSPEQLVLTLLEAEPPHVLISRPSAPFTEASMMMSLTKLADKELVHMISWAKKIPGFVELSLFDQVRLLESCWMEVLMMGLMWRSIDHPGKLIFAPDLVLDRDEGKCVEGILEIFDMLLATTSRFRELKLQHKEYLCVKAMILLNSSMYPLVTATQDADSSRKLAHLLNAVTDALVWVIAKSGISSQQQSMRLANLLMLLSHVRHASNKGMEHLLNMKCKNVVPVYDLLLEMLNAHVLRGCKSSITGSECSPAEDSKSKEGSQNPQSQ
The series can be described thus: Radioligand binding competition with [3H]-17β-estradiol, ERβ.

Series [1] relates to metallothionein-II mRNA in Saos-2 cells. Briefly: Regulation of metallothionein II mRNA in Saos-2 cells. It is filed as cell-based.
The mark [2] stands for this setting: competition with [3H]-17β-estradiol, human ERα ligand binding domain.
Where [3] appears, read: competition with [3H]-17β-estradiol, human ERβ ligand binding domain, read-out: ER-β IC50.

Read-outs that look alike come from different tables or passages of the source.

Take `NC1=C(c2ccc(O)cc2)C(=O)c2ccc(O)cc21` [Example 1, 3-Amino-5-hydroxy-2-(4-hydroxyphenyl)-1H-inden-1-one]: the melting point (as a rule, the temperature, or range, at which the solid turns liquid) was in the range of 260 to 265 °C. Besides, the IC50 (commonly the concentration needed to halve the response being measured) at human ERα (setting [2]) was more than 5 µM. At human ERβ, this compound returned an IC50 of 1.15 µM.
In the case of `O=C1c2ccc(O)cc2C(=O)C1c1ccc(O)cc1` (stereo not drawn) [Example 2, 5-Hydroxy-2-(4-hydroxyphenyl)-1H-indene-1,3(2H)-dione], the melting point lay in the range of 227 to 228 °C. For the same compound, the IC50 on human ERβ (setting [3]) came out at 2.63 µM.
As for `O=C1C(c2ccc(O)cc2)=C(Br)c2ccc(O)cc21` [Example 3, 3-Bromo-6-hydroxy-2-(4-hydroxyphenyl)-1H-inden-1-one], the melting point is 240 °C (dec.). Besides, in series [1], the “Fold upregulation of metallothionein-II mRNA” value (from here on “Fold upregulation”) came to 10.8. For the same compound, the IC50 at human ERα (setting [2]) worked out at 0.29 µM.
On to `O=C1C(c2ccc(O)cc2)=C(Br)c2cc(O)ccc21` [Example 4, 3-Bromo-5-hydroxy-2-(4-hydroxyphenyl)-1H-inden-1-one], for which the melting point was 245 °C (dec.). For the same compound, the “Fold upregulation” value in series [1] was found to be 10.4. The half-maximal inhibitory concentration (IC50) on human ERα (setting [2]) was 0.005 µM. The IC50 on human ERβ was found to be 0.002 µM.
As for `CCNC1=C(c2ccc(O)cc2)C(=O)c2cc(O)ccc21` [Example 5, 3-(Ethylamino)-6-hydroxy-2-(4-hydroxyphenyl)-1H-inden-1-one], the melting point is 250 °C (dec.). The IC50 on human ERα (setting [2]) is more than 5 µM. Further, the IC50 at human ERβ (setting [3]) was 2.7 µM.
`CCSC1=C(c2ccc(O)cc2)C(=O)c2cc(O)ccc21` [Example 6, 3-(Ethylthio)-6-hydroxy-2-(4-hydroxyphenyl)-1H-inden-1-one] had a melting point of 78 to 81 °C. At human ERα (setting [2]), the IC50 was 0.01 µM. Moreover, the half-inhibitory concentration (IC50) on human ERβ (setting [3]) turned out to be 0.008 µM.
With `CCSC1=C(c2ccc(O)cc2)C(=O)c2ccc(O)cc21` [Example 7, 3-(Ethylthio)-5-hydroxy-2-(4-hydroxyphenyl)-1H-inden-1-one], the melting point is 118 to 120 °C. The half-maximal inhibitory concentration (IC50) at human ERα (setting [2]) was determined as 0.4 µM. Further, the IC50 on human ERβ (setting [3]) was 0.15 µM.
For `CSC1=C(c2ccc(O)cc2)C(=O)c2cc(O)ccc21` [Example 8, 6-hydroxy-2-(4-hydroxyphenyl)-3-(methylthio)-1H-inden-1-one] the same measures were 90 to 92 °C, 0.012 µM and 0.003 µM.
For the compound `CSC1=C(c2ccc(O)cc2)C(=O)c2ccc(O)cc21` [Example 9, 5-hydroxy-2-(4-hydroxyphenyl)-3-(methylthio)-1H-inden-1-one], the melting point lay within 183 to 185 °C. The half-maximal inhibitory concentration (IC50) at human ERα (setting [2]) was 0.003 µM. Further, on human ERβ, the IC50 is 0.001 µM.
`O=C1C(c2ccc(O)cc2)=C(c2ccccc2)c2ccc(O)cc21` [Example 10, 6-hydroxy-2-(4-hydroxyphenyl)-3-phenyl-1H-inden-1-one] gave a melting point of 100 to 110 °C. The IC50 on human ERα (setting [2]) was 0.01 µM. On human ERβ, the IC50 was 0.008 µM.
For `O=C1C(c2ccc(O)cc2)=C(c2ccccc2)c2cc(O)ccc21` [Example 11, 5-hydroxy-2-(4-hydroxyphenyl)-3-phenyl-1H-inden-1-one] the same measures were 222 to 225 °C, 0.015 µM and 0.005 µM.
`CC1=C(c2ccc(O)cc2)C(=O)c2cc(O)ccc21` [Example 12, 6-hydroxy-2-(4-hydroxyphenyl)-3-methyl-1H-inden-1-one] gave a melting point of 240 to 245 °C. In addition, the concentration for half-maximal inhibition (IC50) at human ERα (setting [2]) turned out to be 0.055 µM. The half-inhibitory concentration (IC50) on human ERβ (setting [3]) stood at 0.011 µM.
For `CC1=C(c2ccc(O)cc2)C(=O)c2ccc(O)cc21` [Example 13, 5-hydroxy-2-(4-hydroxyphenyl)-3-methyl-1H-inden-1-one], in that order: 251 °C, 0.006 µM and 0.002 µM.
Turning to `O=C1c2cc(O)cc(O)c2C(=O)C1c1ccc(O)cc1` (stereo not drawn) [Example 14, 4,6-dihydroxy-2-(4-hydroxyphenyl)-1H-inden-1,3(2H)-dione], the melting point fell in the range of 220 to 222 °C. Further, the IC50 at human ERβ (setting [3]) was found to be 1.38 µM.
As to `O=C1C(c2ccc(O)cc2)=C(Br)c2c(O)cc(O)cc21` [Example 15, 3-bromo-4,6-dihydroxy-2-(4-hydroxyphenyl)-1H-inden-1-one], the melting point was 350 °C (dec.). In series [1], the “Fold upregulation” value stood at 5.6. In addition, the IC50 at human ERα (setting [2]) amounted to 0.714 µM. For the same compound, the IC50 at human ERβ (setting [3]) came to 0.267 µM.
Regarding `COc1cc(O)cc2c1C(Br)=C(c1ccc(O)cc1)C2=O` [Example 16, 3-bromo-6-hydroxy-2-(4-hydroxyphenyl)-4-methoxy-1H-inden-1-one], the melting point was 210 °C (dec.). Further, the IC50 on human ERα (setting [2]) stood at 0.2 µM. For the same compound, on human ERβ (setting [3]), the IC50 amounted to 0.15 µM.
Take `CC1=C(c2ccc(O)cc2)C(=O)c2c(O)cc(O)cc21` [Example 17, 5,7-Dihydroxy-2-(4-hydroxyphenyl)-3-methyl-1H-inden-1-one]: the melting point lay within 215 to 217 °C. Further, on human ERα (setting [2]), the IC50 is 0.031 µM. The IC50 on human ERβ is 0.002 µM.
For `CSC1=C(c2ccc(O)cc2)C(=O)c2cc(O)cc(O)c21` [Example 18, 4,6-Dihydroxy-2-(4-hydroxyphenyl)-3-(methylthio)-1H-inden-1-one], the melting point fell in the range of 208 to 210 °C.
Regarding `CCSC1=C(c2ccc(O)cc2)C(=O)c2cc(O)cc(O)c21` [Example 19, 3-(Ethylthio)-4,6-Dihydroxy-2-(4-hydroxyphenyl)-1H-inden-1-one], the melting point lay within 187 to 190 °C. For the same compound, the IC50 on human ERα (setting [2]) was 0.003 µM. For the same compound, the IC50 at human ERβ was 0.002 µM.
The compound `O=C1C(c2ccc(O)cc2)=C(c2ccccc2)c2c(O)cc(O)cc21` [Example 20, 4,6-Dihydroxy-2-(4-hydroxyphenyl)-3-phenyl-1H-inden-1-one] displayed a melting point of 223 to 225 °C. Besides, the IC50 at human ERα (setting [2]) was 0.047 µM. Besides, the IC50 on human ERβ (setting [3]) came out at 0.044 µM.
Compound `O=C1C(c2ccc(O)cc2)=C(c2ccccc2)c2cc(O)cc(O)c21` [Example 21, 5,7-Dihydroxy-2-(4-hydroxyphenyl)-3-phenyl-1H-inden-1-one] came in with a melting point of 128 to 130 °C. The concentration for half-maximal inhibition (IC50) on human ERα came out at 0.003 µM.
For `CC1=C(c2ccc(O)cc2)C(=O)c2cc(O)c(O)cc21` [Example 22, 5,6-Dihydroxy-2-(4-hydroxyphenyl)-3-methyl-1H-inden-1-one], the melting point was 226 to 229 °C. Further, the IC50 at human ERα (setting [2]) was 0.076 µM. The IC50 on human ERβ (setting [3]) came out at 0.131 µM.
